Earlier results in US20230348531A1, “ISOLATION AND PURIFICATION OF BACTERIOCIN PRODUCED BY LACTOBACILLUS SAKEI AND ANTIBACTERIAL USE THEREOF AND LACTIC ACID BACTERIA USED” (Zhejiang Gongshang University, priority 2022, published 2023).

Test system: gram-negative bacteria such as Escherichia coli
Settings: background statement

For Nisin, which “inhibitory effect on gram-negative bacteria” value is on record?
The value was “no inhibitory effect”.
